In ChEMBL document CHEMBL2331400, “Structure-based design and evaluation of naphthalene diimide G-quadruplex ligands as telomere targeting agents in pancreatic cancer cells” (J Med Chem, 2013):
Calls of active or inactive are those of the source. No cut-off for these calls is given here.

Legend:
unidentified [1] = assay: Stabilization of HSP90a promoter sequence 5'-FAM-d(GGGCCAAAGGGAAGGGGTGGG)-TAMRA-3' (unknown origin) assessed as melting temperature at 1 uM by FRET assay
MIA PaCa-2 [2] = assay: Cytotoxicity against human MIAPaCa2 cells assessed as growth inhibition after 96 hrs by SRB assay; format: functional, cell-based; conditions: MIA PaCa-2, 96 h
unidentified [3] = assay: Stabilization of HSP90b promoter sequence 5'-FAM-d(GGGCGGGCCAAAGGGAAGGGG)-TAMRA-3' (unknown origin) assessed as melting temperature at 1 uM by FRET assay
WI-38 = assay: Cytotoxicity against human WI38 cells assessed as growth inhibition after 96 hrs by SRB assay; format: cell-based; conditions: WI-38, 96 h
MCF7 = assay: Cytotoxicity against human MCF7 cells assessed as growth inhibition after 96 hrs by SRB assay; format: functional, cell-based; conditions: MCF7, 96 h
MIA PaCa-2 [4] = assay: Upregulation of DDIT3 gene expression in human MIAPaCa2 cells at cytotoxic concentration after 24 hrs by qPCR analysis; format: functional, cell-based
MIA PaCa-2 [5] = assay: Downregulation of CDK7 gene expression in human MIAPaCa2 cells at 20 to 160 nM after 24 hrs by qPCR analysis relative to solvent-treated control; format: functional, cell-based
MIA PaCa-2 [6] = assay: Upregulation of UNG gene expression in human MIAPaCa2 cells at sublethal concentration after 24 hrs by qPCR analysis; format: functional, cell-based
MIA PaCa-2 [7] = assay: Upregulation of MYC gene expression in human MIAPaCa2 cells at 20 to 80 nM by qPCR analysis relative to solvent-treated control; format: functional
MIA PaCa-2 [8] = assay: Upregulation of PPP1R15A gene expression in human MIAPaCa2 cells at cytotoxic concentration after 24 hrs by qPCR analysis; format: functional, cell-based
MIA PaCa-2 [9] = assay: Upregulation of NHP2 gene expression in human MIAPaCa2 cells at 20 to 80 nM after 24 hrs by qPCR analysis relative to solvent-treated control; format: functional
MIA PaCa-2 [10] = assay: Upregulation of PPM1D gene expression in human MIAPaCa2 cells at cytotoxic concentration after 24 hrs by qPCR analysis; format: functional, cell-based
Homo sapiens = organism: Homo sapiens; assay: Stabilization of human telomeric G-quadruplex DNA sequence 5'-FAM-d(GGG[TTAGGG]3)-TAMRA-3' assessed as melting temperature at 1 uM by FRET assay
MIA PaCa-2 [11] = assay: Downregulation of DDIT3 gene expression in human MIAPaCa2 cells at subcytotoxic concentration after 24 hrs by qPCR analysis; format: functional, cell-based
MIA PaCa-2 [12] = assay: Downregulation of RASSF1 gene expression in human MIAPaCa2 cells at 20 to 80 nM after 24 hrs by qPCR analysis relative to solvent-treated control; format: functional
MIA PaCa-2 [13] = assay: Inhibition of telomerase activity in human MIAPaCa2 cells assessed as telomere elongation at 5 to 7.5 nM after 7 days by TRAP-LIG assay; format: cell-based
MIA PaCa-2 [14] = assay: Induction of ATR/[…] gene expression in human MIAPaCa2 cells by qPCR analysis; format: functional, cell-based
MIA PaCa-2 [15] = assay: Induction of gamma-H2AX gene expression in human MIAPaCa2 cells by qPCR analysis; format: functional, cell-based
MIA PaCa-2 [16] = assay: Downregulation of PTGES3 gene expression in human MIAPaCa2 cells at 20 to 80 nM after 24 hrs by qPCR analysis relative to solvent-treated control; format: functional, cell-based
MIA PaCa-2 [17] = assay: Upregulation of PPARG gene expression in human MIAPaCa2 cells at 20 to 80 nM after 24 hrs by qPCR analysis relative to solvent-treated control; format: functional
MIA PaCa-2 [18] = assay: Inhibition of telomerase activity in human MIAPaCa2 cells assessed as telomere elongation up to 10 uM after 7 days by TRAP-LIG assay; format: cell-based
MIA PaCa-2 [19] = assay: Downregulation of GADD45A gene expression in human MIAPaCa2 cells at subcytotoxic concentration after 24 hrs by qPCR analysis; format: functional, cell-based
MIA PaCa-2 [20] = assay: Downregulation of PARP1 gene expression in human MIAPaCa2 cells at 20 to 160 nM after 24 hrs by qPCR analysis relative to solvent-treated control; format: functional, cell-based
MIA PaCa-2 [21] = assay: Downregulation of GADD45G gene expression in human MIAPaCa2 cells at subcytotoxic concentration after 24 hrs by qPCR analysis; format: functional, cell-based
MIA PaCa-2 [22] = assay: Cytotoxicity against human MIAPaCa2 cells assessed as growth inhibition at 5 to 40 nM after 144 hrs by microscopic analysis; format: functional, cell-based
MIA PaCa-2 [23] = assay: Downregulation of POT1 gene expression in human MIAPaCa2 cells at 20 to 80 nM after 24 hrs by qPCR analysis relative to solvent-treated control; format: functional, cell-based
MIA PaCa-2 [24] = assay: Downregulation of RAD50 gene expression in human MIAPaCa2 cells at 20 to 160 nM after 24 hrs by qPCR analysis relative to solvent-treated control; format: functional, cell-based
786-0 = assay: Cytotoxicity against human 786-0 cells assessed as growth inhibition after 96 hrs by SRB assay; format: functional, cell-based; conditions: 786-0, 96 h
MIA PaCa-2 [25] = assay: Induction of senescence in human MIAPaCa2 cells at 3.3 to 6.6 nM after 7 days by beta-galactosidase assay relative to vehicle-treated control; format: functional
MIA PaCa-2 [26] = assay: Downregulation of PPP1R15A gene expression in human MIAPaCa2 cells at subcytotoxic concentration after 24 hrs by qPCR analysis; format: functional, cell-based
unidentified [27] = assay: Stabilization of duplex DNA T-loop (unknown origin) 5'-FAM-dTATAGCTATA-HEG-TATAGCTATA-TAMRA-3' assessed as melting temperature at 1 uM by FRET assay
MIA PaCa-2 [28] = assay: Downregulation of NBN gene expression in human MIAPaCa2 cells at 20 to 160 nM after 24 hrs by qPCR analysis relative to solvent-treated control; format: functional, cell-based
MIA PaCa-2 [29] = assay: Cytotoxicity against human MIAPaCa2 cells assessed as growth inhibition at 5 to 40 nM up to 96 hrs by microscopic analysis; format: functional, cell-based
MIA PaCa-2 [30] = assay: Downregulation of BAX gene expression in human MIAPaCa2 cells at 20 to 160 nM after 24 hrs by qPCR analysis relative to solvent-treated control; format: functional, cell-based
MIA PaCa-2 [31] = assay: Upregulation of TP73 gene expression in human MIAPaCa2 cells at sublethal concentration after 24 hrs by qPCR analysis; format: functional, cell-based
MIA PaCa-2 [32] = assay: Upregulation of NTHL1 gene expression in human MIAPaCa2 cells at sublethal concentration after 24 hrs by qPCR analysis; format: functional, cell-based
MIA PaCa-2 [33] = assay: Downregulation of UNG gene expression in human MIAPaCa2 cells at 160 nM after 24 hrs by qPCR analysis; format: functional, cell-based
[34] = Cytotoxicity against human RCC4 cells assessed as growth inhibition after 96 hrs by SRB assay; format: functional, cell-based; conditions: RCC4, 96 h
MIA PaCa-2 [35] = assay: Cytotoxicity against human MIAPaCa2 cells assessed as growth inhibition at 160 nM after 72 hrs by microscopic analysis; format: functional, cell-based
MIA PaCa-2 [36] = assay: Upregulation of GADD45G gene expression in human MIAPaCa2 cells at cytotoxic concentration after 24 hrs by qPCR analysis; format: functional, cell-based
A549 = assay: Cytotoxicity against human A549 cells assessed as growth inhibition after 96 hrs by SRB assay; format: functional, cell-based; conditions: A549, 96 h

**Q.** Which ΔTm (unidentified [1]) does the source give for `CN1CCN(CCCNc2cc3c4c(c(NCCCN5CCN(C)CC5)cc5c4c2C(=O)N(CCCN2CCOCC2)C5=O)C(=O)N(CCCN2CCOCC2)C3=O)CC1` here?
**A.** The ΔTm was 33.1 °C.

**Q.** What about the IC50 (MIA PaCa-2 [2]) of the same compound?
**A.** Its IC50 is 10 nM.

**Q.** What about the ΔTm (unidentified [3]) of the same compound?
**A.** Its ΔTm is 28.6 °C.

**Q.** What about the IC50 (WI-38) of the same compound?
**A.** The IC50 was 230 nM.

**Q.** And the IC50 (MCF7)?
**A.** Its IC50 is 70 nM.

**Q.** What about the Activity (MIA PaCa-2 [4]) of the same compound?
**A.** Its Activity is “Active”.

**Q.** What about the Activity (MIA PaCa-2 [5]) of the same compound?
**A.** Its Activity is “Active”.

**Q.** And the Activity (MIA PaCa-2 [6])?
**A.** Its Activity is “inactive”.

**Q.** And the “fold change (FC)” value (MIA PaCa-2 [7])?
**A.** The value was >2.

**Q.** What about the Activity (MIA PaCa-2 [8]) of the same compound?
**A.** Its Activity is “Active”.

**Q.** What about the “fold change (FC)” value (MIA PaCa-2 [9]) of the same compound?
**A.** The value was >2.

**Q.** What about the Activity (MIA PaCa-2 [10]) of the same compound?
**A.** Its Activity is “Active”.

**Q.** What about the ΔTm (Homo sapiens) of the same compound?
**A.** Its ΔTm is 26.6 °C.

**Q.** What about the Activity (MIA PaCa-2 [11]) of the same compound?
**A.** Its Activity is “inactive”.

**Q.** And the “fold change (FC)” value (MIA PaCa-2 [12])?
**A.** Its value is >2.

**Q.** And the inhibition (MIA PaCa-2 [13])?
**A.** The inhibition was “inactive”.

**Q.** What about the Activity (MIA PaCa-2 [14]) of the same compound?
**A.** The Activity was “inactive”.

**Q.** And the Activity (MIA PaCa-2 [15])?
**A.** The Activity was “Active”.

**Q.** And the Activity (MIA PaCa-2 [16])?
**A.** The Activity was “Active”.

**Q.** And the “fold change (FC)” value (MIA PaCa-2 [17])?
**A.** The value was >2.

**Q.** What about the inhibition (MIA PaCa-2 [18]) of the same compound?
**A.** Its inhibition is “inactive”.

**Q.** What about the Activity (MIA PaCa-2 [19]) of the same compound?
**A.** The Activity was “inactive”.

**Q.** And the Activity (MIA PaCa-2 [20])?
**A.** The Activity was “Active”.

**Q.** What about the Activity (MIA PaCa-2 [21]) of the same compound?
**A.** Its Activity is “inactive”.

**Q.** And the “growth inhibition (GI)” value (MIA PaCa-2 [22])?
**A.** Its value is “inactive”.

**Q.** And the Activity (MIA PaCa-2 [23])?
**A.** Its Activity is “Active”.

**Q.** And the Activity (MIA PaCa-2 [24])?
**A.** Its Activity is “Active”.

**Q.** What about the IC50 (786-0) of the same compound?
**A.** Its IC50 is 320 nM.

**Q.** What about the Activity (MIA PaCa-2 [25]) of the same compound?
**A.** Its Activity is 50%.

**Q.** What about the Activity (MIA PaCa-2 [26]) of the same compound?
**A.** Its Activity is “inactive”.

**Q.** What about the ΔTm (unidentified [27]) of the same compound?
**A.** Its ΔTm is 4.9 °C.

**Q.** And the Activity (MIA PaCa-2 [28])?
**A.** The Activity was “Active”.

**Q.** What about the “growth inhibition (GI)” value (MIA PaCa-2 [29]) of the same compound?
**A.** The value was “Active”.

**Q.** And the Activity (MIA PaCa-2 [30])?
**A.** The Activity was “Active”.

**Q.** What about the Activity (MIA PaCa-2 [31]) of the same compound?
**A.** The Activity was “inactive”.

**Q.** And the Activity (MIA PaCa-2 [32])?
**A.** Its Activity is “inactive”.

**Q.** What about the Activity (MIA PaCa-2 [33]) of the same compound?
**A.** Its Activity is “Active”.

**Q.** And the IC50 [34]?
**A.** Its IC50 is 560 nM.

**Q.** What about the “growth inhibition (GI)” value (MIA PaCa-2 [35]) of the same compound?
**A.** The value was “Active”.

**Q.** And the Activity (MIA PaCa-2 [36])?
**A.** Its Activity is “Active”.

**Q.** What about the IC50 (A549) of the same compound?
**A.** Its IC50 is < 10 nM.
